Like-named read-outs stand apart in the source and are kept apart here.
How the values were obtained:
[1] = test system: human multiple myeloma cell line, OPM-2; assay: Cell viability assay (OPM-2 10 FBS), CellTiter-Glo; format: cell-based
In short: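 OPM-2 cells at 3000 cells/well in RPMI 1640 with 10% FBS were exposed to serially diluted compounds for 16 h at 37 °C, 5% CO2.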

[2] = molecular target: recombinant human Mcl-1 (residues 171-327) / Bim interaction (Homo sapiens (Human), UniProt Q07820); assay: biochemical; format: binding; details: read-out: Mcl-1 HTRF IC50
[3] = Homo sapiens, OPM-2, 16 h, read-out: OPM-2 10% FBS IC50 IP, OPM-2 cells, 10% FBS, 16 h, CellTiter-Glo
[4] = TR-FRET, Mcl-1(171-327) / biotin-Bim (51-76)
[5] = read-out: OPM-2 10% FBS IC50 IP, OPM-2 cells, 10% FBS, 16 h, CellTiter-Glo
[6] = read-out: OPM-2 10% FBS IC50 IP, OPM-2 cells, 10% FBS, 16 h incubation
[7] = 0.1 nM Mcl-1(171-327), 0.05 nM biotin-Bim (51-76)
[8] = Homo sapiens, OPM-2, 16 h, read-out: OPM-2 10% FBS IC50 IP, OPM-2 cells, 10% FBS, 16 h incubation

Chain of recombinant human Mcl-1 (residues 171-327) / Bim interaction (Q07820 171-327): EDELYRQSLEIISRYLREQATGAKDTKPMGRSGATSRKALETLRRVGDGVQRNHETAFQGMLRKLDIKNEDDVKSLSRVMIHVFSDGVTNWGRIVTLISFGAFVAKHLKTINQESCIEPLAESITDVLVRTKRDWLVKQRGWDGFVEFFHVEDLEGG

| SMILES | IC50 [1, 3] [nM] | IC50 [2, 4] [nM] | further results |
| --- | --- | --- | --- |
| CC[C@@H]1CCCC[C@@](COC)(OC)[C@@H]2CC[C@H]2CN2C[C@@]3(CCCc4cc(Cl)ccc43)COc3ccc(cc32)C(=O)NS1(=O)=O [Example 100038, (1S,3′R,6′R,7′R,12′R)-6-chloro-12′-ethyl-7′-methoxy-7′-(methoxymethyl)-3,4-dihydro-2H,15′H-spiro[naphthalene-1,22′-[20]oxa[13]thia[1,14]diazatetracyclo [14.7.2.0~3,6~.0~19,24~]pentacosa[16,18,24]trien]-15′-one 13′,13′-dioxide] | 2560 | 1.66 | – |
| CO[C@@]1(C2SCCCS2)/C=C/C[C@H](C)[C@@H](C)S(=O)(=O)NC(=O)c2ccc3c(c2)N(C[C@@H]2CC[C@H]21)C[C@@]1(CCCc2cc(Cl)ccc21)CO3 [Example 100261, (1S,3′R,6′R,7′S,8′E,11′S,12′R)-6-chloro-7′-(1,3-dithian-2-yl)-7′-methoxy-11′,12′-dimethyl-3,4-dihydro-2H,15′H-spiro[naphthalene-1,22′-[20]oxa[13]thia[1,14]diazatetracyclo [14.7.2.0~3,6~.0~19,24~]pentacosa[8,16,18,24]tetraen]-15′-one 13′,13′-dioxide] | 533 | 1.22 | – |
| C/C=C/C[C@]1(OC)/C=C/C[C@H](C)[C@@H](C)S(=O)(=O)NC(=O)c2ccc3c(c2)N(C[C@@H]2CC[C@H]21)C[C@@]1(CCCc2cc(Cl)ccc21)CO3 [Example 100438, (1S,3′R,6′R,7′S,8′E,11′S,12′R)-7′-((2E)-2-buten-1-yl)-6-chloro-7′-methoxy-11′,12′-dimethyl-3,4-dihydro-2H,15′H-spiro[naphthalene-1,22′-[20]oxa[13]thia[1,14]diazatetracyclo [14.7.2.0~3,6~.0~19,24~]pentacosa[8,16,18,24]tetraen]-15′-one 13′,13′-dioxide] | 547 | 0.169 | – |
| C[C@@H]1[C@@H](C)C/C=C/[C@](O)(c2ccc(F)cn2)[C@@H]2CC[C@H]2CN2C[C@@]3(CCCc4cc(Cl)ccc43)COc3ccc(cc32)C(=O)NS1(=O)=O [Example 100403, (1S,3′R,6′R,7′R,8′E,11′S,12′R)-6-chloro-7′-(5-fluoro-2-pyridinyl)-7′-hydroxy-11′,12′-dimethyl-3,4-dihydro-2H,15′H-spiro[naphthalene-1,22′-[20]oxa[13]thia[1,14]diazatetracyclo [14.7.2.0~3,6~.0~19,24~]pentacosa[8,16,18,24]tetraen]-15′-one 13′,13′-dioxide] | 390 | 0.226 | – |
| CO[C@@]1(CC(=O)N2CCN(C)C[C@H]2C)/C=C/C[C@H](C)[C@@H](C)S(=O)(=O)NC(=O)c2ccc3c(c2)N(C[C@@H]2CC[C@H]21)C[C@@]1(CCCc2cc(Cl)ccc21)CO3 (single isomer, unassigned) [Example 100480] | – | 0.176 | IC50 [1, 5]: 221 nM |
| CO[C@@]1(CC(=O)N2CCC2)/C=C/C[C@H](C)[C@@H](C)S(=O)(=O)NC(=O)c2ccc3c(c2)N(C[C@@H]2CC[C@H]21)C[C@@]1(CCCc2cc(Cl)ccc21)CO3 [Example 100006, (1 S,3′R,6′R,7′S,8′E,11′S,12′R)-7′-(2-(1-azetidinyl)-2-oxoethyl)-6-chloro-7′-methoxy-1′,12′-dimethyl-3,4-dihydro-2H, 15′H-spiro[naphthalene-1,22′-[20]oxa[13]thia[1,14]diazatetracyclo[14.7.2.0-3,6˜.0˜19,24˜]pentacosa[8,16,18,24]tetraen]-15′-one 13′,13′-dioxide] | 131 | 0.081 | – |
| C[C@@H]1[C@@H](C)C/C=C/[C@@](O)([C@@H]2CCN(C)C2=O)[C@@H]2CC[C@H]2CN2C[C@@]3(CCCc4cc(Cl)ccc43)COc3ccc(cc32)C(=O)NS1(=O)=O [Example 100109, (1S,3′R,6′R,7′S,8′E,11′S,12′R)-6-chloro-7′-hydroxy-11′,12′-dimethyl-7′-((3S)-1-methyl-2-oxo-3-pyrrolidinyl)-3,4-dihydro-2H,15′H-spiro[naphthalene-1,22′-[20]oxa[13]thia[1,14]diazatetracyclo [14.7.2.0~3,6~.0~19,24~]pentacosa[8,16,18,24]tetraen]-15′-one 13′,13′-dioxide] | – | 0.486 | IC50 [1, 5]: 2140 nM |
| CO[C@@]1(CCCO)/C=C/C[C@H](C)[C@@H](C)S(=O)(=O)NC(=O)c2ccc3c(c2)N(C[C@@H]2CC[C@H]21)C[C@@]1(CCCc2cc(Cl)ccc21)CO3 [Example 100177, (1S,3′R,6′R,7′S,8′E,11′S,12′R)-6-chloro-7′-(3-hydroxypropyl)-7′-methoxy-11′,12′-dimethyl-3,4-dihydro-2H,15′H-spiro[naphthalene-1,22′-[20]oxa[13]thia[1,14]diazatetracyclo [14.7.2.0~3,6~.0~19,24~]pentacosa[8,16,18,24]tetraen]-15′-one 13′,13′-dioxide] | 259 | 0.258 | – |
| CO[C@@]1(CN2CCN3CCN(C(=O)CCS(=O)(=O)c4ccccc4)C[C@@H]3C2)/C=C/C[C@H](C)[C@@H](C)S(=O)(=O)NC(=O)c2ccc3c(c2)N(C[C@@H]2CC[C@H]21)C[C@@]1(CCCc2cc(Cl)ccc21)CO3 [Example 233] | – | – | IC50 [1, 6]: 202 nM; IC50 [2, 7]: 0.516 nM |
| C[C@@H]1[C@@H](C)CCC[C@@](O)(CCN2CCCCC2)[C@@H]2CC[C@H]2CN2C[C@@]3(CCCc4cc(Cl)ccc43)COc3ccc(cc32)C(=O)NS1(=O)=O [Example 100092, (1S,3′R,6′R,7′R,11′S,12′R)-6-chloro-7′-hydroxy-11′,12′-dimethyl-7′-(2-(1-piperidinyl)ethyl)-3,4-dihydro-2H,15′H-spiro[naphthalene-1,22′-[20]oxa[13]thia[1,14]diazatetracyclo [14.7.2.0~3,6~.0~19,24~]pentacosa[16,18,24]trien]-15′-one 13′,13′-dioxide] | – | 4.02 | IC50 [1, 5]: 2210 nM |
| CO[C@]1(CN2CCN(C(C)C)[C@H](C)C2)/C=C/C[C@H](C)[C@@H](C)S(=O)(=O)NC(=O)c2ccc3c(c2)N(C[C@@H]2CC[C@H]21)C[C@@]1(CCCc2cc(Cl)ccc21)CO3 [Example 8, (1 S,3′R,6′R,7′R,8′E, 11′S,12′R)-6-CHLORO-7′-METHOXY-11′,12′-DIMETHYL-7′-(((3R)-3-METHYL-4-(1-METHYLETHYL)-1-PIPERAZINYL)METHYL)-3,4-DIHYDRO-2H, 15′H-SPIRO [NAPHTHALENE-1,22′-[20]OXA[13]THIA[1,14]DIAZATETRACYCLO[14.7.2.0-3,6˜.0˜19,24˜]PENT ACOSA[8,16,18,24]TETRAEN]-15′-ONE 13′,13′-DIOXIDE] | – | – | IC50 [1, 6]: 25 nM; IC50 [2, 7]: 0.053 nM |
| C[C@@H]1[C@@H](C)CCC[C@](O)(CC(=O)O)[C@@H]2CC[C@H]2CN2C[C@@]3(CCCc4cc(Cl)ccc43)COc3ccc(cc32)C(=O)NS1(=O)=O [Example 100097, ((1S,3′R,6′R,7′S,11′S,12′R)-6-chloro-7′-hydroxy-11′,12′-dimethyl-13′,13′-dioxido-15′-oxo-3,4-dihydro-2H-spiro[naphthalene-1,22′-[20]oxa[13]thia[1,14]diazatetracyclo [14.7.2.0~3,6~.0~19,24~]pentacosa[16,18,24]trien]-7′-yl)acetic acid] | 5230 | 0.081 | – |
| C[C@@H]1[C@@H](C)CCC[C@](O)(CO)[C@@H]2CC[C@H]2CN2C[C@@]3(CCCc4cc(Cl)ccc43)COc3ccc(cc32)C(=O)NS1(=O)=O (single isomer, unassigned) [Example 100052] | 424 | 0.191 | – |
| C[C@@H]1[C@@H](C)CCC[C@](O)(c2nccn2C)[C@@H]2CC[C@H]2CN2C[C@@]3(CCCc4cc(Cl)ccc43)COc3ccc(cc32)C(=O)NS1(=O)=O [Example 100223, (1S,3′R,6′R,7′R,11′S,12′R)-6-chloro-7′-hydroxy-11′,12′-dimethyl-7′-(1-methyl-1H-imidazol-2-yl)-3,4-dihydro-2H,15′H-spiro[naphthalene-1,22′-[20]oxa[13]thia[1,14]diazatetracyclo [14.7.2.0~3,6~.0~19,24~]pentacosa[16,18,24]trien]-15′-one 13′,13′-dioxide] | 2150 | 1.41 | – |
| CO[C@@]1(CN2CCn3nncc3C2)/C=C/C[C@H](C)[C@@H](C)S(=O)(=O)NC(=O)c2ccc3c(c2)N(C[C@@H]2CC[C@H]21)C[C@@]1(CCCc2cc(Cl)ccc21)CO3 [Example 207, (1S,3′R,6′R,7′S,8′E,11′S,12′R)-6-chloro-7′-(6,7-dihydro[1,2,3]triazolo[1,5-a]pyrazin-5(4H)-ylmethyl)-7′-methoxy-11′,12′-dimethyl-3,4-dihydro-2H,15′H-spiro[naphthalene-1,22′-[20]oxa[13]thia[1,14]diazatetracyclo [14.7.2.0~3,6~.0~19,24~]pentacosa[8,16,18,24]tetraen]-15′-one 13′,13′-dioxide] | – | – | IC50 [1, 8]: 395 nM; IC50 [2, 7]: 0.137 nM |
| C[C@@H]1[C@@H](C)C/C=C/[C@@](O)(c2ccncn2)[C@@H]2CC[C@H]2CN2C[C@@]3(CCCc4cc(Cl)ccc43)COc3ccc(cc32)C(=O)NS1(=O)=O (single isomer, unassigned) [Example 100360] | 1230 | 0.848 | – |
| COCCN1CCN(C[C@@]2(OC)/C=C/C[C@H](C)[C@@H](C)S(=O)(=O)NC(=O)c3ccc4c(c3)N(C[C@@H]3CC[C@H]32)C[C@@]2(CCCc3cc(Cl)ccc32)CO4)CC1 [Example 61, (1S,3′R,6′R,7′R,8′E,11′S,12′R)-6-chloro-7′-methoxy-7′-((4-(2-methoxyethyl)-1-piperazinyl)methyl)-11′,12′-dimethyl-3,4-dihydro-2H,15′H-spiro[naphthalene-1,22′-[20]oxa[13]thia[1,14]diazatetracyclo [14.7.2.0~3,6~.0~19,24~]pentacosa[8,16,18,24]tetraen]-15′-one 13′,13′-dioxide] | – | – | IC50 [1, 8]: 124 nM; IC50 [2, 7]: 0.075 nM |
